According to article PMC7301697 (Journal of Enzyme Inhibition and Medicinal Chemistry, 2020):

Columns and labels:
[1] = target: T1, Polyphosphate kinase 1 (PPK1) (Escherichia coli, UniProt P0A7B1); experiment: SPR single-concentration response at […]; format: binding
T1 sequence (P0A7B1 2-688): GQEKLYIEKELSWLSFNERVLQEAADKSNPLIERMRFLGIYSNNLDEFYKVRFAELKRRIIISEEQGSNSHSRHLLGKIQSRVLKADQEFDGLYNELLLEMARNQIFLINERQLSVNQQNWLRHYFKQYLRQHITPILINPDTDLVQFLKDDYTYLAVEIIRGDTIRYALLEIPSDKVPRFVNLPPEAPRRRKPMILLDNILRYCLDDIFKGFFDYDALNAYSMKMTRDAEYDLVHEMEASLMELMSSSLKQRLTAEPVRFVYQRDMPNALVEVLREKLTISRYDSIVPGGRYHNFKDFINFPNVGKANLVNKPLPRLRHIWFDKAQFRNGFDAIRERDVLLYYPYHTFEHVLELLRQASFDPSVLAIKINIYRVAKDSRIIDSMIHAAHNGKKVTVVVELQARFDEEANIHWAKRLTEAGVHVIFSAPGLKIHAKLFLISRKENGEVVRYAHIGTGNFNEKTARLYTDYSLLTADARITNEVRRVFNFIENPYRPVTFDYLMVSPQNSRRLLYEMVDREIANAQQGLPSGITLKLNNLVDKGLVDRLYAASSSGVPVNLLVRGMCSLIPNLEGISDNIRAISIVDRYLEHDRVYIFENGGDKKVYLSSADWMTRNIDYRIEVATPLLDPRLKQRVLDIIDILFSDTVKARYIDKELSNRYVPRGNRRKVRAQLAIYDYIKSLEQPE

[2] = target: T1, Polyphosphate kinase 1 (PPK1); experiment: SPR; format: binding

| SPR single-concentration response at 100 μM (positive control) [1] | Kd [2] | SMILES |
| --- | --- | --- |
| 3.06 100RU/Da |  | COc1cc([C@@H]2c3cc4c(cc3[C@@H](O[C@@H]3O[C@@H]5CO[C@@H](C)O[C@H]5[C@H](O)[C@H]3O)[C@H]3COC(=O)[C@H]23)OCO4)cc(OC)c1O [Etoposide] |
|  | 85.8 µM | O=[N+]([O-])c1ccc2nc(-c3ccc(Cl)cc3)[nH]c2c1 [compound 8, 8] |
|  | 84.6 µM | Cc1ccc(C(=O)Nc2ccc(Cl)cc2)cc1C(F)(F)F [compound 17, 17] |
